Structures can show the parent of a compound that is named as a salt.
Experiments:
[1] = long-term stability study; assay type: physicochemical
[2] = tested on: human Calu-6 lung adenocarcinoma (K-RAS mutation) tumors; assay: xenograft efficacy study, combination; assay type: in vivo, BALB/C nude mice; settings: Calu-6 tumors
Protocol: Human cancer cells were inoculated subcutaneously in the right axilla region of BALB/C nude mice to generate tumor xenografts. On the day of implantation, the cell culture medium was replaced with fresh medium. Three hours later, the media was removed and the cells were collected and re-suspended in cold (4° C.) PBS prior to inoculation. The right axilla region of each mouse was cleaned with 70% ethanol prior to cell inoculation. Each animal was injected subcutaneously with desired cells in 200 μl of cell suspension in the right front flank via a 26-gauge needle. After implantation tumor volumes were measured twice weekly in two dimensions using a calliper. Tumor volume was calculated using the formula: V=0.5×(a×b^2) where a and b are the long and short diameters of the tumor, respectively.
For in vivo efficacy studies, when the average tumor size reaches 100˜200 mm^3, animals were assigned into desired number of groups with 6-10 mice per group using a stratified randomization procedure. […] Body weight was assessed immediately before dosing and the volume dosed was adjusted accordingly. Individual body weights and tumor volumes were determined twice weekly, with mice being monitored daily for clinical signs of toxicity for the duration of the study. […] All group data was analyzed using the t test. […]
Tumor growth inhibition (TGI) was calculated using the following formula: […]

wild-type Braf = wild-type Braf (Homo sapiens, UniProt P15056); assay: Raf kinase enzymatic assay (HTRF); assay type: biochemical
Sequence of wild-type Braf (P15056 whole entry): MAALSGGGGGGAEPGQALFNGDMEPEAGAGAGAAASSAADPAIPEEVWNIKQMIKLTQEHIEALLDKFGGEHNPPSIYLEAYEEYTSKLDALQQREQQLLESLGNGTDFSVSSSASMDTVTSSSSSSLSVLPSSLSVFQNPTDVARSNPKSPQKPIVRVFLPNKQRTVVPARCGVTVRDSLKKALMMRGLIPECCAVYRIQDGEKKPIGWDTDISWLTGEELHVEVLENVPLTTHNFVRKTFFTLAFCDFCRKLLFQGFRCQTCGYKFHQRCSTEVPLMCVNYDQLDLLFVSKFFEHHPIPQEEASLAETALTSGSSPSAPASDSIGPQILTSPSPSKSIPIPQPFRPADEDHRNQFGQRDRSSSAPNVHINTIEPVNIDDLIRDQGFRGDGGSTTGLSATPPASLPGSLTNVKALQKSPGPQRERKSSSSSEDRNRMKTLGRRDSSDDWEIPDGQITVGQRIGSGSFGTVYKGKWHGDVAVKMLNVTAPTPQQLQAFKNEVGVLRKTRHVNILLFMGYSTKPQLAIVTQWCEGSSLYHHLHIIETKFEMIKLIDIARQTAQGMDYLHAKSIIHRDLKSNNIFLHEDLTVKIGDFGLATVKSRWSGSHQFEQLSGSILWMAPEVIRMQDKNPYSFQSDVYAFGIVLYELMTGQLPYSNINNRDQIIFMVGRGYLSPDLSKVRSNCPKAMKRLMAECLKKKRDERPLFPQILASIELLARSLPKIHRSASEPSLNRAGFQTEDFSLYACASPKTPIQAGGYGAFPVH
Protocol: (§1) Crystalline Form A* of Compound 1 Sesqui-Maleate was tested against recombinant B-Raf (V600E) (PV3849), C-Raf (Y340D/Y341D) (PV3805) and wild-type Braf (PV3848) from Life Technologies in kinase activity assays based on homogeneous time-resolved fluorescence (HTRF) methodology (Cisbio Bioassays). The assays were carried out in a reaction mixture containing RAF kinases, ATP at KM concentration, GST-tagged MEK1 (K97R) and Crystalline Form A* of Compound 1 Sesqui-Maleate or DMSO in buffer containing 25 mM Tris pH7.4, 10 mM MgCl2, 0.5 mM EGTA, 0.5 mM Na3VO4, 5 mM beta-glycerophosphate, 0.01% Triton X-100, 2.5 mM DTT and 0.1% BSA. The kinase was incubated with Crystalline Form A* of Compound 1 Sesqui-Maleate for 1 hr at room temperature (RT) and the reaction was initiated by the addition of ATP and GST-MEK1 (Full-length protein with K97R mutation, recombinant protein purified from bacterial expression system). After reaction at RT for 1 hr, stop/detection solution was added according to the manufacture's instruction (Cisbio Bioassays). The stop/detection solution contained Eu3+ cryptate-conjugated anti-phospho MEK1/2 (Ser217/221) rabbit polyclonal antibody and d2-conjugated anti-GST mouse monoclonal antibody in buffer containing 25 mM Tris pH7.4, 400 mM KF, 50 mM EDTA, 0.1% BSA and 0.01% Triton X-100. The TR-FRET signals (ratio of fluorescence emission at 665 nm over emission at 620 nm with excitation at 337 nm wavelength) were measured on a PHERAstar FS plate reader (BMG Labtech) after 1.5 hr incubation. Phosphorylation of MEK1 led to the binding of anti-phospho-MEK1/2 antibody to GST-MEK1 protein that place fluorescent donor (Eu3+ crypate) in close proximity to the accepter d2 on the anti-GST antibody, thus resulting in a high degree of fluorescence resonance energy transfer from the donor fluorophore (at 620 nm) to the acceptor fluorophore (at 665 nm). The IC50 for Crystalline Form A* of Compound 1 Sesqui-Maleate was derived from fitting the dose-response % inhibition data to the four-parameter logistic model by Graphpad Prism software.

C-Raf (Y340D/Y341D) = biological target: T1, C-Raf (Y340D/Y341D) (Homo sapiens, UniProt P04049, Y340D/Y341D); assay: Raf kinase enzymatic assay (HTRF); assay type: biochemical
T1 construct: purchased Life Technologies PV3805
T1 sequence (P04049 whole entry Y340D/Y341D): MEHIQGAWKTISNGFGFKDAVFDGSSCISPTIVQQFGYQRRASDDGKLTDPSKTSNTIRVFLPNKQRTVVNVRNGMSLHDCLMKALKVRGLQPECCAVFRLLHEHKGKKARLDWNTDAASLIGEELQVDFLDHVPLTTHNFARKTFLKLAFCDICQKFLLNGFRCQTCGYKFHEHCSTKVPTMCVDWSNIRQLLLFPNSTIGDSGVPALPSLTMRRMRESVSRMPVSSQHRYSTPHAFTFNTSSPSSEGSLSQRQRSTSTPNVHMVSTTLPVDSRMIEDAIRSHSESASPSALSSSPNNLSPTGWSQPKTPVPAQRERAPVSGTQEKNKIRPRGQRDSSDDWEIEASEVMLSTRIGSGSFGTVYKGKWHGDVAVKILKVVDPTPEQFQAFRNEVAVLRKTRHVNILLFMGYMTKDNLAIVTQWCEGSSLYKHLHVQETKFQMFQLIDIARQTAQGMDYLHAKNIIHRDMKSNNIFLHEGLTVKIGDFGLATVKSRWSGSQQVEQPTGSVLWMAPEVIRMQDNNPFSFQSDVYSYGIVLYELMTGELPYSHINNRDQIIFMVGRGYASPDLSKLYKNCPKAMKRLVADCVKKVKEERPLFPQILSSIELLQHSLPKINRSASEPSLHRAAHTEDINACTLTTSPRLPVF
Protocol: as §1

[3] = tested on: ERK phosphorylation in Colo205 cells; assay: cellular phospho-ERK TR-FRET assay; assay type: cell-based; settings: Homo sapiens, COLO 205; B-RAF V600E mutant Colo205 colorectal cancer cells, 1 h treatment
Protocol: (§2) A375, Sk-Mel-28, HT29, Colo205, A431, and HCC827 cell lines were purchased from American Type Culture Collection. All the cell lines used in the cellular assays were cultured in the designated medium supplemented with 10% fetal bovine serum (FBS, Thermo Scientific), 100 units/mL penicillin (Gibco), 0.1 mg/mL streptomycin (Gibco) and in a humidified 37° C. environment with 5% CO2. Cell lines were reinstated from frozen stocks laid down within three passages from the original cells purchased and passaged no more than 30 times.
(§3) Cellular phospho-ERK and phospho-EGFR were measured using a TR-FRET-based method. Cells were seeded at 3×10^4 per well of a 96-well plate and left to attach for 16 hours. Growth medium was then replaced with 100 μL of medium containing no serum. Cells were then treated with a 10-point titration of compound. After 1 h of compound treatment, 50 μL of lysis buffer (Cisbio) were added to each well. Plates were then incubated at room temperature with shaking for 30 min. A total of 16 μL of cell lysate from each well of a 96-well plate was transferred to a 384-well small volume white plate. Lysate from each well was incubated with 2 μL of Eu3+- or Tb3+-cryptate (donor) labeled anti-ERK or anti-EGFR antibody (Cisbio) and 2 μL of D2 (acceptor) labeled anti-phospho-ERK or anti-phospho-EGFR antibody (Cisbio) for 2 h at room temperature. FRET signals were measured using a PHERAstar FS reader (BMG Labtech). IC50 values for ERK or EGFR phosphorylation was determined using GraphPad Prism software.

[4] = tested on: ERK phosphorylation in Sk-Mel-28 cells; assay: cellular phospho-ERK TR-FRET assay; assay type: cell-based; settings: Homo sapiens; B-RAF V600E mutant melanoma Sk-Mel-28 cells, 1 h treatment
Protocol: as §2, §3

[5] = tested on: ERK phosphorylation in HT29 cells; assay: cellular phospho-ERK TR-FRET assay; assay type: cell-based; settings: Homo sapiens, HT-29; B-RAF V600E mutant HT29 colorectal cancer cells, 1 h treatment
Protocol: as §2, §3

Structure (SMILES): O=C1CCc2c(Oc3ccc4c(c3)[C@@H]3[C@H](O4)[C@H]3c3nc4ccc(C(F)(F)F)cc4[nH]3)ccnc2N1 [5-(((1R,1aS,6bR)-1-(6-(trifluoromethyl)-1H-benzo[d]imidazol-2-yl)-1a,6b-dihydro-1H-cyclopropa[b]benzofuran-5-yl)oxy)-3,4-dihydro-1,8-naphthyridin-2(1H)-one sesqui-maleate salt]
- purity after stability study ([1]; 24 month at 25 C/75% RH): 98.5%
- crystal form and optical purity changes ([1]; 25° C./60% RH up to 18 months and 40° C./75% RH up to 6 months): no crystal form and optical purity changes were observed
- Assay w/w ([1]; T0, 25° C./60% RH study): 99.1%
- Assay w/w ([1]; T0, 40° C./75% RH study): 99.1%
- Assay w/w ([1]; T6: 6 months at 40° C./75% RH): 98.9%
- Assay w/w ([1]; T18: 18 months at 25° C./60% RH): 98.8%
- antitumor activity in combination ([2]; combined with docetaxel): remarkable antitumor activity
- antitumor activity in combination ([2]; combined with the MEK inhibitor selumetinib (AZD6244)): remarkable antitumor activity
- IC50 (wild-type Braf; WT-BRAF, ATP at KM): 0.069 µM
- enzyme inhibition (wild-type Braf; wild-type B-RAF): potent and reversible inhibitor
- enzyme inhibition (C-Raf (Y340D/Y341D); C-RAF): potent and reversible inhibitor
- IC50 (C-Raf (Y340D/Y341D); CRAF Y340, 341D, ATP at KM): 0.0035 µM
- IC50 [3]: 0.053 µM
- IC50 [4]: 0.077 µM
- IC50 [5]: 0.103 µM

From patent US10351559B2, “Maleate salts of a B-RAF kinase inhibitor, crystalline forms, methods of preparation, and uses therefore” (BeiGene, Ltd., priority 2015, dated 2019)
